# Earlier results in patent US4181708A, “Rumen-stable pellets” (Eastman Kodak Company, priority 1978, dated 1980).
# Like-named read-outs stand apart in the source and are kept apart here.
# Conditions: for Solubility: water
Structure (SMILES),pH of saturated solution,Solubility [g./100 g. water],Solubility (at 25° C.) [g./100 g. water]
CC(N)C(=O)O (racemic) [DL - Alanine],6.2,,
CSCCC(N)C(=O)O (racemic) [DL - Methionine],5.7,,
NC(Cc1ccccc1)C(=O)O (racemic) [DL - Phenylalanine],5.6,,3.0
N=C(N)NCCC[C@H](N)C(=O)O [L - Arginine],11.8,,
CC(C)C[C@H](N)C(=O)O [L(-) - Lencine],,,2.0
N[C@@H](Cc1ccc(O)cc1)C(=O)O [L(-) - Tyrosine],7.3,,

# Further lines, with some results ahead:
pH of saturated solution,Solubility [g./100 g. water],Structure (SMILES),Solubility (at 25° C.) [g./100 g. water]
4.7,3.1,NC(=O)C[C@H](N)C(=O)O [L - Asparagine],
3.7,0.01,N[C@@H](CS)C(=O)O [L(-) - Cysteine],
